Reference: ChEMBL document CHEMBL4346757, “Synthesis and biological evaluation of 7-methoxy-1-(3,4,5-trimethoxyphenyl)-4,5-dihydro-2H-benzo[e]indazoles as new colchicine site inhibitors” (Bioorg Med Chem Lett, 2019)

Experiments:
Type in all cases: functional
A498 = test: Growth inhibition of human A498 cells assessed as cell growth at 0.01 uM after 48 hrs by SRB assay relative to control; conditions: A498, 48 h, read-out: Activity
NCI-H522 = test: Growth inhibition of human NCI-H522 cells assessed as cell growth at 10 uM after 48 hrs by SRB assay relative to control; conditions: NCI-H522, 48 h, read-out: Activity
CAKI-1 [1] = test: Cytotoxicity against human Caki1 cells assessed as growth inhibition after 48 hrs by SRB assay; conditions: CAKI-1, 48 h
MDA-MB-435 = test: Growth inhibition of human MDA-MB-435 cells assessed as cell growth at 0.01 uM after 48 hrs by SRB assay relative to control; conditions: MDA-MB-435, 48 h, read-out: Activity
SK-MEL-28 [2] = test: Cytotoxicity against human SK-MEL-28 cells assessed as growth inhibition after 48 hrs by SRB assay; conditions: SK-MEL-28, 48 h
SK-OV-3 [3] = test: Cytotoxicity against human SKOV3 cells assessed as growth inhibition after 48 hrs by SRB assay; conditions: SK-OV-3, 48 h
RPMI-8226 [4] = test: Cytotoxicity against human RPMI8226 cells assessed as growth inhibition after 48 hrs by SRB assay; conditions: RPMI-8226, 48 h
CAKI-1 [5] = test: Growth inhibition of human Caki1 cells assessed as cell growth at 10 uM after 48 hrs by SRB assay relative to control; conditions: CAKI-1, 48 h, read-out: Activity
RPMI-8226 [6] = test: Growth inhibition of human RPMI8226 cells assessed as cell growth at 100 uM after 48 hrs by SRB assay relative to control; conditions: RPMI-8226, 48 h, read-out: Activity
HCC 2998 = test: Growth inhibition of human HCC2998 cells assessed as cell growth at 100 uM after 48 hrs by SRB assay relative to control; conditions: HCC 2998, 48 h, read-out: Activity
RPMI-8226 [7] = test: Growth inhibition of human RPMI8226 cells assessed as cell growth at 0.1 uM after 48 hrs by SRB assay relative to control; conditions: RPMI-8226, 48 h, read-out: Activity
UACC-62 = test: Cytotoxicity against human UACC62 cells assessed as growth inhibition after 48 hrs by SRB assay; conditions: UACC-62, 48 h
A549 [8] = test: Growth inhibition of human A549/ATCC cells assessed as cell growth at 0.01 uM after 48 hrs by SRB assay relative to control; conditions: A549, 48 h, read-out: Activity
EKVX = test: Growth inhibition of human EKVX cells assessed as cell growth at 1 uM after 48 hrs by SRB assay relative to control; conditions: read-out: Activity
T47D = test: Growth inhibition of human T47D cells assessed as cell growth at 1 uM after 48 hrs by SRB assay relative to control; conditions: read-out: Activity
SK-MEL-28 [9] = test: Growth inhibition of human SK-MEL-28 cells assessed as cell growth at 0.01 uM after 48 hrs by SRB assay relative to control; conditions: SK-MEL-28, 48 h, read-out: Activity
SW-620 = test: Growth inhibition of human SW620 cells assessed as cell growth at 10 uM after 48 hrs by SRB assay relative to control; conditions: SW-620, 48 h, read-out: Activity
HCT-15 = test: Growth inhibition of human HCT15 cells assessed as cell growth at 10 uM after 48 hrs by SRB assay relative to control; conditions: HCT-15, 48 h, read-out: Activity
SK-OV-3 [10] = test: Growth inhibition of human SKOV3 cells assessed as cell growth at 100 uM after 48 hrs by SRB assay relative to control; conditions: SK-OV-3, 48 h, read-out: Activity
IGROV-1 = test: Growth inhibition of human IGROV1 cells assessed as cell growth at 0.1 uM after 48 hrs by SRB assay relative to control; conditions: IGROV-1, 48 h, read-out: Activity
HCT-116 = test: Growth inhibition of human HCT116 cells assessed as cell growth at 0.1 uM after 48 hrs by SRB assay relative to control; conditions: HCT-116, 48 h, read-out: Activity
SK-OV-3 [11] = test: Growth inhibition of human SKOV3 cells assessed as cell growth at 10 uM after 48 hrs by SRB assay relative to control; conditions: SK-OV-3, 48 h, read-out: Activity
Hs-578T = test: Growth inhibition of human Hs 578T cells assessed as cell growth at 100 uM after 48 hrs by SRB assay relative to control; conditions: read-out: Activity
HOP-92 [12] = test: Growth inhibition of human HOP92 cells assessed as cell growth at 0.01 uM after 48 hrs by SRB assay relative to control; conditions: HOP-92, 48 h, read-out: Activity
HOP-92 [13] = test: Growth inhibition of human HOP92 cells assessed as cell growth at 10 uM after 48 hrs by SRB assay relative to control; conditions: HOP-92, 48 h, read-out: Activity
A549 [14] = test: Growth inhibition of human A549/ATCC cells assessed as cell growth at 10 uM after 48 hrs by SRB assay relative to control; conditions: A549, 48 h, read-out: Activity
HT-29 = test: Growth inhibition of human HT-29 cells assessed as cell growth at 1 uM after 48 hrs by SRB assay relative to control; conditions: HT-29, 48 h, read-out: Activity
KM12 = test: Growth inhibition of human KM12 cells assessed as cell growth at 1 uM after 48 hrs by SRB assay relative to control; conditions: KM12, 48 h, read-out: Activity
ACHN = test: Growth inhibition of human ACHN cells assessed as cell growth at 0.01 uM after 48 hrs by SRB assay relative to control; conditions: read-out: Activity
SR = test: Growth inhibition of human SR cells assessed as cell growth at 100 uM after 48 hrs by SRB assay relative to control; conditions: read-out: Activity
COLO 205 = test: Growth inhibition of human COLO205 cells assessed as cell growth at 1 uM after 48 hrs by SRB assay relative to control; conditions: COLO 205, 48 h, read-out: Activity
MOLT-4 = test: Growth inhibition of human MOLT4 cells assessed as cell growth at 1 uM after 48 hrs by SRB assay relative to control; conditions: MOLT-4, 48 h, read-out: Activity
[15] = read-out: LC50 (the source's name)
[16] = read-out: pLC50 (the source's name) (converted)

## COc1ccc2c(c1)CCc1n[nH]c(-c3cc(OC)c(OC)c(OC)c3)c1-2
A498
  growth at 0.01 µM: -11%
NCI-H522
  growth at 10 µM: -17%
CAKI-1 [1]; read-out: GI50
  GI50: < 0.01 µM
CAKI-1 [1]; read-out: LC50
  LC50 (concentration killing 50% of cells): > 100 µM
CAKI-1 [1]; read-out: TGI
  TGI: 24.8 µM
CAKI-1 [1]; read-out: pGI50 (converted)
  GI50: < 0.01 µM
CAKI-1 [1]; read-out: pLC50 (converted)
  LC50 (concentration killing 50% of cells): > 100 µM
CAKI-1 [1]; read-out: pTGI (converted)
  TGI: 24.5 µM
MDA-MB-435
  growth at 0.01 µM: -45%
SK-MEL-28 [2]; read-out: GI50
  GI50: 1.62 µM
SK-MEL-28 [2]; read-out: LC50
  LC50 (concentration killing 50% of cells): 68.8 µM
SK-MEL-28 [2]; read-out: TGI
  TGI: 21.7 µM
SK-MEL-28 [2]; read-out: pGI50 (converted)
  GI50: 1.62 µM
SK-MEL-28 [2]; read-out: pLC50 (converted)
  LC50 (concentration killing 50% of cells): 69.2 µM
SK-MEL-28 [2]; read-out: pTGI (converted)
  TGI: 21.9 µM
SK-OV-3 [3]; read-out: GI50
  GI50: < 0.01 µM
SK-OV-3 [3]; [15]
  CC50: > 100 µM
SK-OV-3 [3]; read-out: TGI
  TGI: < 0.01 µM
SK-OV-3 [3]; read-out: pGI50 (converted)
  GI50: < 0.01 µM
SK-OV-3 [3]; [16]
  CC50: > 100 µM
SK-OV-3 [3]; read-out: pTGI
  TGI: < 0.01 µM
RPMI-8226 [4]; [15]
  CC50: > 100 µM
RPMI-8226 [4]; read-out: TGI
  TGI: > 100 µM
RPMI-8226 [4]; [16]
  CC50: > 100 µM
RPMI-8226 [4]; read-out: pTGI
  TGI: > 100 µM
CAKI-1 [5]
  growth at 10 µM: 13%
RPMI-8226 [6]
  growth at 100 µM: 15%
HCC 2998
  growth at 100 µM: -80%
RPMI-8226 [7]
  growth at 0.1 µM: 51%
UACC-62; read-out: GI50
  GI50: < 0.01 µM
UACC-62; [15]
  CC50: 50 µM
UACC-62; read-out: TGI
  TGI: 13 µM
UACC-62; read-out: pGI50 (converted)
  GI50: < 0.01 µM
UACC-62; [16]
  CC50: 50.1 µM
UACC-62; read-out: pTGI (converted)
  TGI: 12.9 µM
A549 [8]
  growth at 0.01 µM: 14%
EKVX
  growth at 1 µM: 52%
T47D
  growth at 1 µM: 69%
SK-MEL-28 [9]
  growth at 0.01 µM: 53%
SW-620
  growth at 10 µM: 14%
HCT-15
  growth at 10 µM: 3%
SK-OV-3 [10]
  growth at 100 µM: -50%
IGROV-1
  growth at 0.1 µM: 29%
HCT-116
  growth at 0.1 µM: 3%
SK-OV-3 [11]
  growth at 10 µM: -13%
Hs-578T
  growth at 100 µM: -18%
HOP-92 [12]
  growth at 0.01 µM: 39%
HOP-92 [13]
  growth at 10 µM: 42%
A549 [14]
  growth at 10 µM: 11%
HT-29
  growth at 1 µM: 5%
KM12
  growth at 1 µM: 5%
ACHN
  growth at 0.01 µM: 30%
SR
  growth at 100 µM: -15%
COLO 205
  growth at 1 µM: -56%
MOLT-4
  growth at 1 µM: 36%
